Source: ChEMBL document CHEMBL3576818, “Structure-Activity Relationships of (+)-Naltrexone-Inspired Toll-like Receptor 4 (TLR4) Antagonists” (J Med Chem, 2015)

Experiments:
[1] = Cytotoxicity against mouse BV2 cells assessed as reduction in viability by crystal violet staining method; conditions: BV-2
[2] = target: T1, Toll-like receptor 4 (Mus musculus, UniProt Q9QUK6)
T1 sequence (Q9QUK6 whole entry): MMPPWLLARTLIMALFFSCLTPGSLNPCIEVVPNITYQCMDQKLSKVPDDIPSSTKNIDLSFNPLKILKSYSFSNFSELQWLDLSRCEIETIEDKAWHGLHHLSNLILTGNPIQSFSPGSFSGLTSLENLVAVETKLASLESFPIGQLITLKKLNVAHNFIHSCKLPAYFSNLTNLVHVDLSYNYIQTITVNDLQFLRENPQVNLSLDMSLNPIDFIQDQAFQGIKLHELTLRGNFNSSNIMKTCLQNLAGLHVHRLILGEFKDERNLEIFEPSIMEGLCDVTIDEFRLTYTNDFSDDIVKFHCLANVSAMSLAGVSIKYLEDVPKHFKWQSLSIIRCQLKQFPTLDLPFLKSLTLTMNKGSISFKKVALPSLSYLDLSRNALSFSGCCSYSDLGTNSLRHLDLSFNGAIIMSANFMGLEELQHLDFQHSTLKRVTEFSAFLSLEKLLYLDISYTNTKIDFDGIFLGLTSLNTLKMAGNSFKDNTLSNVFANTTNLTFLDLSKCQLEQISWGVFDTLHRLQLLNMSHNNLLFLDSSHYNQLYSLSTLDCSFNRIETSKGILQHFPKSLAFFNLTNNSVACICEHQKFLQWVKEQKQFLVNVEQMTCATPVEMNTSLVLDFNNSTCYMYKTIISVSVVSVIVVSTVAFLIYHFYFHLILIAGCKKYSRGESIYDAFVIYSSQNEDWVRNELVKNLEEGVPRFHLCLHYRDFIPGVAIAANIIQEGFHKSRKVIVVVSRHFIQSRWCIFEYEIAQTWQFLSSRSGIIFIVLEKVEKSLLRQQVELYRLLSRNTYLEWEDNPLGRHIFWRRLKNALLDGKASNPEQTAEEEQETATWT
Description: Antagonist activity against TLR4 in mouse BV2 cells assessed as inhibition of LPS-induced nitric oxide production incubated for 24 hrs by 2,3-diaminonaphthalene dye based assay

Row | Compound | IC50 [1] [µM] | IC50 [2] [µM]
1 | O=C1CC[C@]2(O)[C@@H]3Cc4ccc(O)c5c4[C@]2(CCN3CCCCCc2ccccc2)[C@@H]1O5 | 26.8 | 1.7
2 | O=C1CC[C@]2(O)[C@@H]3Cc4ccc(O)c5c4[C@]2(CCN3CC2CC2)[C@@H]1O5 | > 400 | 106
3 | O=C1CC[C@]2(O)CN(CC3CC3)CC[C@]23c2cccc(O)c2O[C@H]13 | > 400 | 76.2
4 | CCCCCCN1CC[C@@]23CCCC[C@]2(O)[C@@H]1Cc1ccc(O)cc13 |  | 5.2
5 | Oc1ccc2c3c1O[C@@H]1[C@@H](O)CC[C@]4(O)[C@H](C2)N(CC2CC2)CC[C@@]314 | > 400 | 243
6 | Oc1ccc2c3c1O[C@@H]1[C@H](O)CC[C@]4(O)[C@H](C2)N(CC2CC2)CC[C@@]314 | > 400 | 144
7 | O=C1CC[C@]2(O)[C@@H]3Cc4ccc(O)cc4[C@]2(CCN3CC2CC2)C1 | > 400 | 118
8 | Oc1ccc2c(c1)[C@]13CCCC[C@]1(O)[C@H](C2)N(CC1CC1)CC3 | 366 | 48.9
9 | CCCCCCN1CC[C@@]23C=CCC[C@]2(O)[C@@H]1Cc1ccc(O)cc13 | 155 | 22.5
10 | CCCCN1CC[C@@]23c4c5ccc(O)c4O[C@@H]2C(=O)CC[C@]3(O)[C@@H]1C5 | > 200 | 24.8
11 | CCCCCN1CC[C@@]23c4c5ccc(O)c4O[C@@H]2C(=O)CC[C@]3(O)[C@@H]1C5 | > 200 | 7.5
12 | CCCCCCN1CC[C@@]23c4c5ccc(O)c4O[C@@H]2C(=O)CC[C@]3(O)[C@@H]1C5 | 121 | 6.7
13 | CCCCCCCN1CC[C@@]23c4c5ccc(O)c4O[C@@H]2C(=O)CC[C@]3(O)[C@@H]1C5 | 68.5 | 3
14 | CCCCCCCCN1CC[C@@]23c4c5ccc(O)c4O[C@@H]2C(=O)CC[C@]3(O)[C@@H]1C5 |  | 1.7
15 | O=C1CC[C@]2(O)[C@@H]3Cc4ccc(O)c5c4[C@]2(CCN3CCCCc2ccccc2)[C@@H]1O5 | 37.1 | 1.2
16 | O=C1CC[C@]2(O)[C@@H]3Cc4ccc(O)c5c4[C@]2(CCN3CCCc2ccccc2)[C@@H]1O5 | 69.3 | 1.4
17 | O=C1CC[C@]2(O)[C@@H]3Cc4ccc(O)c5c4[C@]2(CCN3CCc2ccccc2)[C@@H]1O5 | 141 | 1.4
18 | O=C1CC[C@]2(O)[C@@H]3Cc4ccc(O)c5c4[C@]2(CCN3CCc2ccccc2F)[C@@H]1O5 | 65.7 | 1.8
19 | COc1ccc2c3c1O[C@@H]1C(=O)CC[C@]4(O)C(C2)N(CCc2ccccc2)CC[C@@]314 |  | 5.7
